Columns and labels:
Assay type in all cases: in vitro ADME
[1] = Metabolic stability in pooled mouse liver microsomes; settings: mouse liver microsomes 0.5 mg/mL, 1 uM, 37° C., NADPH
Procedure: (§1) Metabolic Stability: In vitro metabolic stability was determined in pooled mouse or human liver microsomes (BD Gentest) at a protein concentration of 0.5 mg/mL in reaction buffer (100 mM KH2PO4, pH 7.4 and 12 mM MgCl2). Each drug candidate was added to a final concentration of 1 uM. This mixture was pre-warmed to 37° C. for 10 minutes prior to starting the reaction with the addition of β-Nicotinamide adenine dinucleotide 2′-phosphate reduced (NADPH) to a final concentration of 1 mM. A parallel incubation lacking NADPH served as the control. After incubation for 30 min at 37° C., the reactions were quenched by the addition of acetonitrile containing 0.1% formic acid and internal standard, vortex mixed for 2 minutes and centrifuged at 4000 rpm for 10 minutes to pellet the precipitated protein. The resulting supernatant containing the drug candidate and its potential metabolites was diluted 5-fold with water containing 0.1% formic acid and submitted to LC-MS/MS analysis. […]
(§2) LC-MS/MS Analysis: An aliquot from each incubation was analyzed by LC-MS/MS with SRM detection in the positive ionization mode using an ABSciex API 5500 QTrap Mass Spectrometer interfaced via the ABSciex Turbo V IonSpray source (ESI) to an Eksigent ExpressHT LC system. […] A fast gradient, from 15 to 85% organic in 2.5 minutes, with run time of 5.0 minutes, and flow rate of 50 ul/min was utilized. Peak areas were integrated using MultiQuant v2.0 software from ABSciex.

[2] = Metabolic stability in pooled human liver microsomes; settings: human liver microsomes 0.5 mg/mL, 1 uM, 37° C., NADPH
Procedure: as §1, §2

[3] = Plasma stability in fresh mouse plasma; settings: 1 uM, 37° C.
Procedure: (§3) Plasma Stability: Assessment of plasma stability was carried out by individual incubations of drug candidates in fresh mouse or human control plasma at a concentration of 1 uM for 1 hour at 37° C. After which, the samples were de-proteinized by addition of 2 volumes of acetonitrile containing 0.1% formic acid and internal standard, vortex mixed for 2 minutes and centrifuged at 4000 rpm for 10 minutes to pellet precipitated protein. The resulting supernatant containing the drug candidates was diluted 5-fold with water containing 0.1% formic acid and submitted to LC-MS/MS analysis. All determinations were done in triplicate. […]
as §2

[4] = Plasma stability in fresh human plasma; settings: 1 uM, 37° C.
Procedure: as §3, §2

[5] = Stability in Simulated Gastric Fluid (SGF); settings: 37° C., 0.01 mg/mL
Procedure: (§4) Stability in Simulated Gastric Fluid (SGF) and Simulated Intestinal Fluid (SIF). Procedure from Baudy et. al. (J. Med. Chem. 2009, 52, 771-778) used. The physiological stability of prodrugs was determined by examining the stability of the compound in SGF, and SIF at 37° C. The compounds were prepared in a 9:1 mixture of the appropriate test component (SGF, SIF) and acetonitrile to a final concentration of 0.01 mg/mL. The samples were thoroughly mixed and maintained at 37° C. Each sample was injected consecutively onto an Agilent 1100 system (Luna C18, 3 μm, 50 mm×3 mm; 1 mL/min; mobile phase of 0.1% trifluoroacetic acid in water/0.1% trifluoroacetic acid in acetonitrile) after a 3 h period. The percent remaining of prodrug was calculated by comparing the area of prodrug compound versus riluzole generated. The identities of the parent compounds and conversion products were confirmed by LC/MS.

[6] = Stability in Simulated Intestinal Fluid (SIF); settings: 37° C., 0.01 mg/mL
Procedure: as §4

Row | SMILES | Metabolic Stability mouse (30 minutes): percent of prodrug metabolized to riluzole [1] [%] | Metabolic Stability human (30 minutes): percent of prodrug metabolized to riluzole [2] [%] | Plasma Stability mouse (1 hour): percent of prodrug metabolized to riluzole [3] [%] | Plasma Stability Human (1 hour): percent of prodrug metabolized to riluzole [4] [%] | SGF (3 hours): percent of prodrug metabolized to riluzole [5] [%] | SIF (3 hours): percent of prodrug metabolized to riluzole [6] [%]
1 | NCC(=O)Nc1nc2ccc(OC(F)(F)F)cc2s1 [Cpd 1, 2-Amino-N-(6-trifluoromethoxy-benzothiazol-2-yl)-acetamide] | 4 | 7 | 11 | 3 |  | 
2 | C[C@@H](N)C(=O)Nc1nc2ccc(OC(F)(F)F)cc2s1 [Cpd 2, (R)-2-Amino-N-(6-trifluoromethoxy-benzothiazol-2-yl)-propionamide] | 10 | 4 | 36 | 15 | 0 | 50
3 | N[C@H](Cc1ccccc1)C(=O)Nc1nc2ccc(OC(F)(F)F)cc2s1 [Cpd 4, (R)-2-Amino-3-phenyl-N-(6-trifluoromethoxy-benzothiazol-2-yl)-propionamide] | 12 | 18 | 47 | 6 | 3 | 0
4 | N[C@H](COCc1ccccc1)C(=O)Nc1nc2ccc(OC(F)(F)F)cc2s1 [Cpd 5, (R)-2-Amino-3-benzyloxy-N-(6-trifluoromethoxy-benzothiazol-2-yl)-propionamide] | 24 | 0 | 25 | 3 |  | 
5 | C[C@H](N)C(=O)Nc1nc2ccc(OC(F)(F)F)cc2s1 [Cpd 7, (S)-2-Amino-N-(6-trifluoromethoxy-benzothiazol-2-yl)-propionamide] | 1 | 0 | 28 | 10 | 0 | 50
6 | N[C@@H](Cc1ccccc1)C(=O)Nc1nc2ccc(OC(F)(F)F)cc2s1 [Cpd 9, (S)-2-Amino-3-phenyl-N-(6-trifluoromethoxy-benzothiazol-2-yl)-propionamide] | 2 | 0 | 0 | 7 |  | 
7 | N[C@@H](COCc1ccccc1)C(=O)Nc1nc2ccc(OC(F)(F)F)cc2s1 [Cpd 10, (S)-2-Amino-3-benzyloxy-N-(6-trifluoromethoxy-benzothiazol-2-yl)-propionamide] | 0 | 15 | 52 | 9 | 0 | 0
8 | CC(C)[C@H](N)C(=O)Nc1nc2ccc(OC(F)(F)F)cc2s1 [Cpd 11, (S)-2-Amino-3-methyl-N-(6-trifluoromethoxy-benzothiazol-2-yl)-butyramide] | 40 | 6 | 45 | 11 | 0 | 40
9 | COC(=O)Nc1nc2ccc(OC(F)(F)F)cc2s1 [Cpd 12, (6-Trifluoromethoxy-benzothiazol-2-yl)-carbamic acid methyl ester] | 10 | 0 | 0 | 15 | 0 | 0
10 | CCOC(=O)Nc1nc2ccc(OC(F)(F)F)cc2s1 [Cpd 13, (6-Trifluoromethoxy-benzothiazol-2-yl)-carbamic acid ethyl ester] | 8 | 7 | 0 | 0 | 0 | 0
11 | CCCOC(=O)Nc1nc2ccc(OC(F)(F)F)cc2s1 [Cpd 14, (6-Trifluoromethoxy-benzothiazol-2-yl)-carbamic acid propyl ester] | 15 | 34 | 0 | 0 | 0 | 0
12 | CCCCOC(=O)Nc1nc2ccc(OC(F)(F)F)cc2s1 [Cpd 15, (6-Trifluoromethoxy-benzothiazol-2-yl)-carbamic acid butyl ester] | 53 | 13 | 9 | 0 | 0 | 0
13 | CC(C)COC(=O)Nc1nc2ccc(OC(F)(F)F)cc2s1 [Cpd 16, (6-Trifluoromethoxy-benzothiazol-2-yl)-carbamic acid isobutyl ester] | 23 | 14 | 0 | 0 | 5 | 0
14 | CCCCCCOC(=O)Nc1nc2ccc(OC(F)(F)F)cc2s1 [Cpd 17, (6-Trifluoromethoxy-benzothiazol-2-yl)-carbamic acid hexyl ester] |  |  |  |  | 0 | 
15 | CN(C)CCOC(=O)Nc1nc2ccc(OC(F)(F)F)cc2s1 [Cpd 18, (6-Trifluoromethoxy-benzothiazol-2-yl)-carbamic acid 2-dimethylamino-ethyl ester] | 13 | 10 | 3 | 0 | 0 | 0
16 | O=C(CCC(=O)Nc1nc2ccc(OC(F)(F)F)cc2s1)NCCN1CCOCC1 [Cpd 24, N-(2-Morpholin-4-yl-ethyl)-N′-(6-trifluoromethoxy-benzothiazol-2-yl)-succinamide] |  |  |  |  | 0 | 60
17 | NCC1(CC(=O)Nc2nc3ccc(OC(F)(F)F)cc3s2)CCCCC1 [Cpd 29, 2-(1-Aminomethyl-cyclohexyl)-N-(6-trifluoromethoxy-benzothiazol-2-yl)-acetamide] |  |  |  |  | 0 | 50
